# Calls of active or inactive are those of the source. The calls are words filed in the database; no cut-off is given here.
# How the values were obtained:
# 3T3-L1 [1] = test: Cytotoxicity against mouse 3T3-L1 cells assessed as reduction in cell viability at 25 uM incubated for 24 hrs by MTT assay relative to control; type: toxicity, cell-based; conditions: 3t3-l1, 24 h
# Acinetobacter baumannii [2] = test: Synergistic antibacterial activity against Acinetobacter baumannii assessed as fractional inhibitory concentration index incubated for 18 to 24 hrs in the presence of oxacillin by CLSI protocol based checkerboard assay; type: functional; conditions: time 18-24 hrs
# Acinetobacter baumannii [3] = test: Antibiofilm activity against Acinetobacter baumannii assessed as reduction in bacterial motility in agar plates by quorum sensing process at 100 uM incubated for 24 hrs; type: functional, organism-based
# Pseudomonas aeruginosa = test: Antibiofilm activity against Pseudomonas aeruginosa ATCC 27853 assessed as inhibition of biofilm formation incubated for 18 to 24 hrs by crystal violet staining based assay; type: functional, organism-based
# Acinetobacter baumannii [4] = test: Antibiofilm activity against Acinetobacter baumannii assessed as reduction in extracellular polysaccharides at 100 uM incubated for 1 hrs by ELISA analysis; type: functional; parameters: scale not given: the % may be the effect or the level left
# Acinetobacter baumannii [5] = test: Synergistic antibacterial activity against Acinetobacter baumannii assessed as planktonic growth inhibition incubated for 18 to 24 hrs in the presence of gentamycin sulphate by CLSI protocol based checkerboard assay; type: functional; conditions: time 18-24 hrs
# Acinetobacter baumannii [6] = test: Antibacterial activity against Acinetobacter baumannii S1 assessed as planktonic growth inhibition incubated for 18 to 24 hrs by CLSI protocol based assay; type: functional; conditions: time 18-24 hrs
# Acinetobacter baumannii [7] = test: Synergistic antibacterial activity against Acinetobacter baumannii assessed as planktonic growth inhibition incubated for 18 to 24 hrs in the presence of chloramphenicol by CLSI protocol based checkerboard assay; type: functional; conditions: time 18-24 hrs
# Acinetobacter baumannii [8] = test: Antibiofilm activity against Acinetobacter baumannii S1 assessed as inhibition rate of biofilm formation at 100 uM incubated for 18 to 24 hrs by crystal violet staining based assay (reference value: 28.8 +/- 8.21%); type: functional; parameters: scale not given: the % may be the effect or the level left; conditions: time 18-24 hrs
# Acinetobacter baumannii [9] = test: Synergistic antibacterial activity against Acinetobacter baumannii assessed as fractional inhibitory concentration index incubated for 18 to 24 hrs in the presence of gentamycin sulphate by CLSI protocol based checkerboard assay; type: functional; conditions: time 18-24 hrs
# Acinetobacter baumannii [10] = test: Antibiofilm activity against Acinetobacter baumannii 1925052 assessed as inhibition of biofilm formation incubated for 18 to 24 hrs by crystal violet staining based assay; type: functional, organism-based
# Acinetobacter baumannii [11] = test: Antibiofilm activity against Acinetobacter baumannii 1778027 assessed as inhibition of biofilm formation incubated for 18 to 24 hrs by crystal violet staining based assay; type: functional, organism-based
# 3T3-L1 [12] = test: Cytotoxicity against mouse 3T3-L1 cells assessed as reduction in cell viability at 50 uM incubated for 24 hrs by MTT assay relative to control; type: toxicity, cell-based; conditions: 3t3-l1, 24 h
# 3T3-L1 [13] = test: Cytotoxicity against mouse 3T3-L1 cells assessed as reduction in cell viability at 200 uM incubated for 24 hrs by MTT assay relative to control; type: toxicity, cell-based; conditions: 3t3-l1, 24 h
# [14] = system: Staphylococcus epidermidis; test: Antibiofilm activity against Staphylococcus epidermis ATCC 102555 assessed as inhibition of biofilm formation incubated for 18 to 24 hrs by crystal violet staining based assay; type: functional, organism-based
# 3T3-L1 [15] = test: Cytotoxicity against mouse 3T3-L1 cells assessed as reduction in cell viability at 100 uM incubated for 24 hrs by MTT assay relative to control; type: toxicity, cell-based; conditions: 3t3-l1, 24 h
# [16] = Cytotoxicity against mouse 3T3-L1 cells assessed as inhibition of cell growth incubated for 24 hrs by MTT assay; type: toxicity, cell-based
# Acinetobacter baumannii [17] = test: Antibacterial activity against Acinetobacter baumannii assessed as planktonic growth inhibition incubated for 18 to 24 hrs by CLSI protocol based assay; type: functional; conditions: time 18-24 hrs
# Acinetobacter baumannii [18] = test: Synergistic antibacterial activity against Acinetobacter baumannii assessed as planktonic growth inhibition incubated for 18 to 24 hrs in the presence of oxacillin by CLSI protocol based checkerboard assay; type: functional; conditions: time 18-24 hrs
# Acinetobacter baumannii [19] = test: Antibiofilm activity against Acinetobacter baumannii assessed as reduction in biofilm brightness at 100 uM incubated for 24 hrs by Alexa fluor 488 staining based confocal laser microscopic analysis; type: functional, organism-based
# Acinetobacter baumannii [20] = test: Synergistic antibacterial activity against Acinetobacter baumannii assessed as fractional inhibitory concentration index incubated for 18 to 24 hrs in the presence of chloramphenicol by CLSI protocol based checkerboard assay; type: functional; conditions: time 18-24 hrs
# Acinetobacter baumannii [21] = test: Antibiofilm activity against Acinetobacter baumannii 1913061 assessed as inhibition of biofilm formation incubated for 18 to 24 hrs by crystal violet staining based assay; type: functional, organism-based
# Escherichia coli = test: Antibiofilm activity against Escherichia coli Dh5alpha assessed as inhibition of biofilm formation incubated for 18 to 24 hrs by crystal violet staining based assay; type: functional, organism-based; conditions: DH5-alpha
# 3T3-L1 [22] = test: Cytotoxicity against mouse 3T3-L1 cells assessed as reduction in cell viability at 12.5 uM incubated for 24 hrs by MTT assay relative to control; type: toxicity, cell-based; conditions: 3t3-l1, 24 h
# Acinetobacter baumannii [23] = test: Antibiofilm activity against Acinetobacter baumannii S1 assessed as inhibition of biofilm formation incubated for 18 to 24 hrs by crystal violet staining based assay; type: functional, organism-based
# Acinetobacter baumannii [24] = test: Antibiofilm activity against Acinetobacter baumannii assessed as reduction in biofilm thickness at 100 uM incubated for 24 hrs by Alexa fluor 488 staining based confocal laser microscopic analysis (reference value: 25.91); type: functional
# Staphylococcus aureus = test: Antibiofilm activity against Staphylococcus aureus ATCC […] assessed as inhibition of biofilm formation incubated for 18 to 24 hrs by crystal violet staining based assay; type: functional, organism-based
# Acinetobacter baumannii [25] = test: Antibiofilm activity against Acinetobacter baumannii ATCC19606 assessed as inhibition of biofilm formation incubated for 18 to 24 hrs by crystal violet staining based assay; type: functional, organism-based
# Acinetobacter baumannii [26] = test: Antibiofilm activity against Acinetobacter baumannii 1780608 assessed as inhibition of biofilm formation incubated for 18 to 24 hrs by crystal violet staining based assay; type: functional, organism-based
smiles,measurement,setting,value
CCCCCCCCCCCCCC(=O)Nc1nc(Cl)cc(N2CCNCC2)n1,Activity,3T3-L1 [1],99.3%
same,fractional inhibitory concentration index (FICI),Acinetobacter baumannii [2],0.25
same,Activity,Acinetobacter baumannii [3],Active
same,IC50,Pseudomonas aeruginosa,9.98 µM
same,Activity,Acinetobacter baumannii [4],72%
same,MIC,Acinetobacter baumannii [5],0.125 µg/mL
same,MIC,Acinetobacter baumannii [6],> 256 µg/mL
same,MIC,Acinetobacter baumannii [7],64 µg/mL
same,Activity,Acinetobacter baumannii [8],70.2%
same,fractional inhibitory concentration index (FICI),Acinetobacter baumannii [9],0.13
same,IC50,Acinetobacter baumannii [10],3.98 µM
same,IC50,Acinetobacter baumannii [11],47.5 µM
same,Activity,3T3-L1 [12],80.61%
same,Activity,3T3-L1 [13],20.84%
same,IC50,[14],6.76 µM
same,Activity,3T3-L1 [15],21.11%
same,IC50 at 24 h,[16],73.6 µM
same,MIC,Acinetobacter baumannii [17],256 µg/mL
same,MIC,Acinetobacter baumannii [18],128 µg/mL
same,Activity,Acinetobacter baumannii [19],Active
same,fractional inhibitory concentration index (FICI),Acinetobacter baumannii [20],0.25
same,IC50,Acinetobacter baumannii [21],1.89 µM
same,IC50,Escherichia coli,3.68 µM
same,Activity,3T3-L1 [22],99.3%
same,IC50,Acinetobacter baumannii [23],16.5 µM
same,Activity,Acinetobacter baumannii [24],14.68
same,IC50,Staphylococcus aureus,11.2 µM
same,IC50,Acinetobacter baumannii [25],4.43 µM
same,IC50,Acinetobacter baumannii [26],5.92 µM

# From ChEMBL document CHEMBL5150056, “Synthesis and antibiofilm evaluation of N-acyl-2-aminopyrimidine derivatives against Acinetobacter baumannii” (Bioorg Med Chem, 2022)
